Reference: article PMC7158045 (BMC Plant Biology, 2020)

Assays:
Experiment in all cases: biochemical
ZmDRIK1-R187-P492 = target: T1, ZmDRIK1-R187-P492 (Zea mays, UniProt C0P4K9); conditions: read-out: dTm B, DSF, Boltzmann fit, 0.1% DMSO
T1 construct: kinase domain, R187-P492
T1 sequence (C0P4K9 1-514): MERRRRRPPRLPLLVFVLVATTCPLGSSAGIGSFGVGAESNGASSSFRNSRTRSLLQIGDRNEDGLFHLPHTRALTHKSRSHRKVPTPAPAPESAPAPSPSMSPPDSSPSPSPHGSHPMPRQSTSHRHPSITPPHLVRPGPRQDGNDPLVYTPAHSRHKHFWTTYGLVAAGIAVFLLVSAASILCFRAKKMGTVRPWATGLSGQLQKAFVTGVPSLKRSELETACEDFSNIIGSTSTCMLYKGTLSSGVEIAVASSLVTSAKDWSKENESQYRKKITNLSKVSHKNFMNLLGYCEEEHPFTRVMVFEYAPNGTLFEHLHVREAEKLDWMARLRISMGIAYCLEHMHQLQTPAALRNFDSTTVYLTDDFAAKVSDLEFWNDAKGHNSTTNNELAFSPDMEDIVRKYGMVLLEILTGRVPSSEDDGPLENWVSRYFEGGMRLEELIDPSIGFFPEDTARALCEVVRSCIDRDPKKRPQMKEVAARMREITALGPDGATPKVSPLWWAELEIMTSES

[1] = target: T2, ZmDRIK1 (DROUGHT RESPONSIVE INACTIVE KINASE 1), kinase domain (Zea mays, UniProt C0P4K9); conditions: read-out: dTm B, sheet ZmDRIK1-R187-S514;; DSF, Boltzmann fit, 0.1% DMSO
T2 construct: gene ZEAMMB73_Zm00001d028770; ZmDRIK1-KD R187-S514 (kinase domain)
T2 sequence (C0P4K9 187-514): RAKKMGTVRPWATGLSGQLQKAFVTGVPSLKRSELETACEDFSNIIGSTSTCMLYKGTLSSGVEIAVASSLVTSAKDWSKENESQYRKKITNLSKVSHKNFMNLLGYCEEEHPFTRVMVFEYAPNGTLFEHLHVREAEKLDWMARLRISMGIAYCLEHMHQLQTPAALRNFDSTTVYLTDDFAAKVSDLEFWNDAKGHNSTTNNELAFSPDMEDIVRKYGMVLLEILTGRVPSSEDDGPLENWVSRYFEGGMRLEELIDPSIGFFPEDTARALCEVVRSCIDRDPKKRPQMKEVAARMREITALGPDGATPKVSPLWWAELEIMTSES

ZmDRIK1-K217-P492 = target: T3, ZmDRIK1-K217-P492 (Zea mays, UniProt C0P4K9); conditions: read-out: dTm B, sheet ZmDRIK1-K217-P492;; DSF, Boltzmann fit, 0.1% DMSO
T3 construct: kinase domain, K217-P492
T3 sequence (C0P4K9 1-514): T1 sequence (C0P4K9 1-514)

ZmDRIK1-K217-S514 = target: T4, ZmDRIK1-K217-S514 (Zea mays, UniProt C0P4K9); conditions: read-out: dTm B, sheet ZmDRIK1-K217-S514;; DSF, Boltzmann fit, 0.1% DMSO
T4 construct: kinase domain, K217-S514
T4 sequence (C0P4K9 1-514): T1 sequence (C0P4K9 1-514)

Question: What does the source list for `Cn1cc(-c2ccc3nnc(Sc4ccc5ncccc5c4)n3n2)cn1` [SGX-523]?
Answer: ΔTm at 10 µM (ZmDRIK1-R187-P492): -0.0185 °C; ΔTm at 10 µM [1]: -0.576 °C; ΔTm at 10 µM (ZmDRIK1-K217-P492): -0.7 °C; ΔTm at 10 µM (ZmDRIK1-K217-S514): -0.351 °C

Question: With `N#C/C(=C\c1ccc(O)c(O)c1)C(=O)NCc1ccccc1` [AG-490 (Tyrphostin B42)] as the compound, how does the ΔTm at 10 µM (ZmDRIK1-R187-P492) read?
Answer: -0.394 °C

Question: And the ΔTm at 10 µM [1]?
Answer: -1.15 °C

Question: And the ΔTm at 10 µM (ZmDRIK1-K217-P492)?
Answer: -0.722 °C

Question: And the ΔTm at 10 µM (ZmDRIK1-K217-S514)?
Answer: -0.507 °C

Question: Which ΔTm at 10 µM (ZmDRIK1-R187-P492) does the source give for `CNC(=O)c1nn(C)c2c1C(C)(C)Cc1cnc(Nc3ccc(N4CCN(C)CC4)cc3)nc1-2` [Milciclib (PHA-848125)] here?
Answer: -0.101 °C

Question: What about the ΔTm at 10 µM [1] of the same compound?
Answer: -0.178 °C

Question: And the ΔTm at 10 µM (ZmDRIK1-K217-P492)?
Answer: -0.0433 °C

Question: And the ΔTm at 10 µM (ZmDRIK1-K217-S514)?
Answer: -0.233 °C

Question: What does the source list for `CO[C@H]1C[C@@H]2CC[C@@H](C)[C@@](O)(O2)C(=O)C(=O)N2CCCC[C@H]2C(=O)O[C@H]([C@H](C)C[C@@H]2CC[C@@H](OP(C)(C)=O)[C@H](OC)C2)CC(=O)[C@H](C)/C=C(\C)[C@@H](O)[C@@H](OC)C(=O)[C@H](C)C[C@H](C)/C=C/C=C/C=C/1C` [Ridaforolimus (Deforolimus)]?
Answer: ΔTm at 10 µM (ZmDRIK1-R187-P492): -0.365 °C; ΔTm at 10 µM [1]: -0.675 °C; ΔTm at 10 µM (ZmDRIK1-K217-P492): -1.84 °C; ΔTm at 10 µM (ZmDRIK1-K217-S514): -0.213 °C

Question: Which results are given for `CN(C)CCOc1ccc(-c2nc(-c3ccncc3)c(-c3ccc4c(c3)CC/C4=N\O)[nH]2)cc1` [SB590885]?
Answer: ΔTm at 10 µM (ZmDRIK1-R187-P492): -0.167 °C; ΔTm at 10 µM [1]: -0.734 °C; ΔTm at 10 µM (ZmDRIK1-K217-P492): -0.936 °C; ΔTm at 10 µM (ZmDRIK1-K217-S514): -0.286 °C

Question: With `C=CC(=O)N1CCN(c2nc(=O)n(-c3c(C)ccnc3C(C)C)c3nc(-c4c(O)cccc4F)c(F)cc23)[C@@H](C)C1` [K-Ras(G12C) inhibitor 9] as the compound, how does the ΔTm at 10 µM (ZmDRIK1-R187-P492) read?
Answer: -0.298 °C

Question: And the ΔTm at 10 µM [1]?
Answer: -0.658 °C

Question: And the ΔTm at 10 µM (ZmDRIK1-K217-P492)?
Answer: -0.935 °C

Question: And the ΔTm at 10 µM (ZmDRIK1-K217-S514)?
Answer: -0.321 °C

Question: What does the source list for `CC(=O)Nc1cccc(-n2c(=O)n(C3CC3)c(=O)c3c(Nc4ccc(I)cc4F)n(C)c(=O)c(C)c32)c1` [Trametinib (GSK1120212)]?
Answer: ΔTm at 10 µM (ZmDRIK1-R187-P492): -0.327 °C; ΔTm at 10 µM [1]: -0.482 °C; ΔTm at 10 µM (ZmDRIK1-K217-P492): -1.15 °C; ΔTm at 10 µM (ZmDRIK1-K217-S514): -0.496 °C

Question: Which ΔTm at 10 µM (ZmDRIK1-R187-P492) does the source give for `COc1ccc(Cl)cc1NC(=O)Nc1cc(C)nc2ccccc12` [PQ 401] here?
Answer: -0.365 °C

Question: What about the ΔTm at 10 µM [1] of the same compound?
Answer: -1.59 °C

Question: And the ΔTm at 10 µM (ZmDRIK1-K217-P492)?
Answer: -0.962 °C

Question: And the ΔTm at 10 µM (ZmDRIK1-K217-S514)?
Answer: -0.394 °C

Question: With `CCNC(=O)Nc1ccc(-c2nc3c(c(N4CCOC[C@@H]4C)n2)CCN(C2COC2)C3)cc1` [GDC-0349] as the compound, how does the ΔTm at 10 µM (ZmDRIK1-R187-P492) read?
Answer: -0.218 °C

Question: And the ΔTm at 10 µM [1]?
Answer: -0.899 °C

Question: And the ΔTm at 10 µM (ZmDRIK1-K217-P492)?
Answer: -0.749 °C

Question: What about the ΔTm at 10 µM (ZmDRIK1-K217-S514) of the same compound?
Answer: -0.392 °C

Question: For `COc1cccc(-c2cc(=O)c3ccccc3o2)c1N` [PD98059], which ΔTm at 10 µM (ZmDRIK1-R187-P492) is on record?
Answer: -0.0775 °C

Question: What about the ΔTm at 10 µM [1] of the same compound?
Answer: -1.1 °C

Question: And the ΔTm at 10 µM (ZmDRIK1-K217-P492)?
Answer: -1.13 °C

Question: And the ΔTm at 10 µM (ZmDRIK1-K217-S514)?
Answer: -0.33 °C

Question: How did the ΔTm at 10 µM (ZmDRIK1-R187-P492) turn out when `CNC(=O)CN1CCC(Oc2cc3c(Nc4cccc(Cl)c4F)ncnc3cc2OC)CC1` [AZD8931 (Sapitinib)] was run?
Answer: -0.238 °C

Question: And the ΔTm at 10 µM [1]?
Answer: -1.22 °C

Question: What about the ΔTm at 10 µM (ZmDRIK1-K217-P492) of the same compound?
Answer: -1.14 °C

Question: And the ΔTm at 10 µM (ZmDRIK1-K217-S514)?
Answer: -0.326 °C

Question: With `CCNc1nc(Nc2cc(F)c(C(=O)N3CCOCC3)cc2OC)ncc1C(F)(F)F` [GNE-7915] as the compound, how does the ΔTm at 10 µM (ZmDRIK1-R187-P492) read?
Answer: -0.506 °C

Question: And the ΔTm at 10 µM [1]?
Answer: -0.927 °C

Question: And the ΔTm at 10 µM (ZmDRIK1-K217-P492)?
Answer: -0.898 °C

Question: What about the ΔTm at 10 µM (ZmDRIK1-K217-S514) of the same compound?
Answer: -0.456 °C

Question: How did the ΔTm at 10 µM (ZmDRIK1-R187-P492) turn out when `O=C(NC1CCNCC1)c1n[nH]cc1NC(=O)c1c(Cl)cccc1Cl` [AT7519] was run?
Answer: 0.0148 °C

Question: And the ΔTm at 10 µM [1]?
Answer: -0.866 °C

Question: And the ΔTm at 10 µM (ZmDRIK1-K217-P492)?
Answer: 0.0166 °C

Question: And the ΔTm at 10 µM (ZmDRIK1-K217-S514)?
Answer: -0.106 °C

Question: Which results are given for `Cc1nc(NC(=O)N2CCC[C@H]2C(N)=O)sc1-c1csc(C(C)(C)C)n1` [A66]?
Answer: ΔTm at 10 µM (ZmDRIK1-R187-P492): -0.295 °C; ΔTm at 10 µM [1]: -0.746 °C; ΔTm at 10 µM (ZmDRIK1-K217-P492): -0.988 °C; ΔTm at 10 µM (ZmDRIK1-K217-S514): -0.323 °C

Question: With `CO[C@@H](C(=O)N1Cc2[nH]nc(NC(=O)c3ccc(N4CCN(C)CC4)cc3)c2C1)c1ccccc1` [Danusertib (PHA-739358)] as the compound, how does the ΔTm at 10 µM (ZmDRIK1-R187-P492) read?
Answer: -0.184 °C

Question: And the ΔTm at 10 µM [1]?
Answer: -0.644 °C

Question: What about the ΔTm at 10 µM (ZmDRIK1-K217-P492) of the same compound?
Answer: -0.905 °C

Question: And the ΔTm at 10 µM (ZmDRIK1-K217-S514)?
Answer: -0.209 °C

Question: `Cn1cc(C2=C(c3ccc(Cl)cc3Cl)C(=O)NC2=O)c2ccccc21` [SB216763] was tested. Which ΔTm at 10 µM (ZmDRIK1-R187-P492) did it give?
Answer: -0.115 °C

Question: And the ΔTm at 10 µM [1]?
Answer: -0.887 °C

Question: What about the ΔTm at 10 µM (ZmDRIK1-K217-P492) of the same compound?
Answer: -1.29 °C

Question: And the ΔTm at 10 µM (ZmDRIK1-K217-S514)?
Answer: -0.35 °C

Question: `Cc1ccc(C(=O)Nc2ccc(CN3CCN(C)CC3)c(C(F)(F)F)c2)cc1C#Cc1cnc2[nH]ncc2c1` [GZD824] was tested. Which ΔTm at 10 µM (ZmDRIK1-R187-P492) did it give?
Answer: -0.305 °C

Question: What about the ΔTm at 10 µM [1] of the same compound?
Answer: -1.61 °C

Question: What about the ΔTm at 10 µM (ZmDRIK1-K217-P492) of the same compound?
Answer: -4.57 °C

Question: What about the ΔTm at 10 µM (ZmDRIK1-K217-S514) of the same compound?
Answer: 0.363 °C

Question: With `O=C(c1ccc(/C=C/c2n[nH]c3ccccc23)cc1)N1CCNCC1` [KW-2449] as the compound, how does the ΔTm at 10 µM (ZmDRIK1-R187-P492) read?
Answer: -0.0311 °C

Question: And the ΔTm at 10 µM [1]?
Answer: -0.807 °C

Question: What about the ΔTm at 10 µM (ZmDRIK1-K217-P492) of the same compound?
Answer: -0.672 °C

Question: And the ΔTm at 10 µM (ZmDRIK1-K217-S514)?
Answer: -0.13 °C
